Measurements as given in US8580711B2, “Decreasing or preventing sub-surface geological matter contamination by agrochemicals” (Yeda Research and Development Co. Ltd., priority 2005, dated 2013).
Values belong to the compound of their own block, whether it stands above or below them.

Experiments:
[1] = USGS estimate; cited from earlier work
[2] = partitioning (adsorption and desorption) of electron transfer mediators on/off geological matter; type: physicochemical; settings: Kaolinite clay, room temperature; for Adsorption (%) of (ETM) after 10 days: aqueous mixture; for Desorption (%) of (ETM) after 10 days: fresh water replaced
Description: Kaolinite clay, ‘purum, natural’ grade, was obtained from Fluka.
(§1) 40 milliliter (ml) (0.04 liter) glass vials (filled with 10 milliliters, of solution), were used at room temperature (between about 20° C. and about 25° C.) and atmospheric pressure, as the vessel or container, for containing the aqueous mixtures of the (partitioning) electron transfer mediator (ETM)—geological matter (soil or clay).
(§2) Ultraviolet and visible (UV/VIS) absorption spectrometry was used for measuring and determining the quantity (concentration), after a time period of 10 days each of (ETM) adsorption and desorption, of each (partitioning) electron transfer mediator (ETM) in the aqueous (liquid) phase of each respective electron transfer mediator (ETM)—geological matter (soil or clay) aqueous mixture. Multiple samples of the aqueous (liquid) phase of each mixture were taken from each respective glass vial (partitioning vessel).
(§3) The UV/VIS absorption spectrometer was a Varian, Cary 100, operative according to double beam analysis. Concentrations of the [TBSP-Ni], hematoporphyrin-Cobalt, and vitamin B12, electron transfer mediators (ETMs), were measured at absorption wavelengths of 527 nanometers (nm), 413 nanometers (nm), and 548 nanometers (nm), respectively.
(§4) The electron transfer mediator (ETM)—geological matter (soil or clay) partitioning experiments were performed at room temperature (between about 20° C. and about 25° C.) and atmospheric pressure.
(§5) Each prepared 2 mM metalloporphyrin complex, or metallocorrin complex, (ETM) aqueous stock solution, was diluted by a ratio of 1/10 or 1/100 with the distilled deionized filtered water, for forming respective diluted (ETM) stock solutions.
(§6) For each diluted (ETM) stock solution, corresponding to each respective electron transfer mediator (ETM), an amount of each type of geological matter, i.e., Bet Dagan soil, kaolinite clay, and montmorillonite clay, was weighed, and added to a separate glass vial (partitioning vessel). (ETM) Control solutions remained absent of any geological matter. […]
(§7) The ‘adsorption mode’ analytical samples were then analyzed by the above described (UV/VIS) absorption spectrometry procedure, for determining the quantity (concentration) of the [TBSP-Ni], hematoporphyrin-Cobalt, and vitamin B12, electron transfer mediator (ETM), present (i.e., remaining) in the aqueous (liquid) phase of each respective electron transfer mediator (ETM)—geological matter (soil or clay) aqueous mixture. Such analysis and determination corresponded to quantitatively measuring and determining the extent that the respective electron transfer mediator (ETM) left the aqueous (liquid) phase and ‘adsorbed’ onto the respective geological matter (soil or clay) (solid) phase. The (ETM) Control solutions were similarly analyzed. […]

[3] = batch mode homogeneous catalytic reductive dechlorination of endosulfan in contaminated water, titanium (III) citrate as bulk electron donor; settings: after 72 hours of reaction, about 0.010 mM catalyst, 0.32 ppm endosulfan initially, room temperature
Description: 40 milliliter (0.04 liter) glass vials (usually filled with about 25 milliliters of reaction solution), fitted with Teflon®-clear silicon sealing cups, were used at room temperature (between about 20° C. and about 25° C.) and atmospheric pressure. Contents of each glass vial (batch reactor) were mixed by securing the glass vial onto an orbital shaker (model TS-600, from MRC, Israel) having automatic (mixing) speed control. Multiple replicates of each glass vial (batch reactor) filled with reaction solution were prepared at the beginning of an experiment.
The glass vial batch mode reaction systems were prepared under oxygen free atmosphere conditions, using an anaerobic chamber (Coy Laboratory Products, MI, USA) containing an oxygen free atmosphere composed of a mixture of nitrogen [N2] gas and hydrogen [H2] gas, having a 95/5 molar or partial pressure ratio.
GC/MS was used for monitoring concentration over time, of endosulfan (as α and β isomers) in the endosulfan contaminated water, during the batch mode homogeneous catalytic reactions.
The extracted organic phase was then transferred to a gas chromatograph vial and analyzed for the presence of the endosulfan (as α and β isomers) contaminant.
The reactions were performed at room temperature (between about 20° C. and about 25° C.) and atmospheric pressure.
A volume of 25 milliliter (0.025 liter) was taken from the appropriate stock solution of water contaminated with endosulfan and added to the empty 40 milliliter glass vial (batch reactor), for providing an initial concentration of 0.32 mg endosulfan per liter contaminated water, or 0.32 ppm endosulfan in the contaminated water. This procedure was repeated, for preparing at least two glass vials (batch reactors) for each experiment.
Reducing conditions were not naturally prevalent in the endosulfan contaminated water in the glass vials (batch reactors) for effectively enabling the phenomena, mechanisms, and processes of the electron transfer mediated (homogeneous) catalytic reductive dehalogenation of the endosulfan contaminant in the contaminated water. Thus, reducing conditions in the endosulfan contaminated water were anthropogenically produced by exposing the endosulfan contaminated water to titanium (III) citrate [Ti(OC(CH2COOH)2COOH] as the bulk electron donor or reducing agent, immediately before exposing the endosulfan contaminated water to the catalytically effective amount of each respective above stated metalloporphyrin complex, or metallocorrin complex, electron transfer mediator (homogeneous catalyst).
The pH of the solution was then adjusted to the desired value (e.g., 9.0) by adding small amounts of NaOH concentrated solution to each glass vial (batch reactor).
Then, an appropriate volume was taken from each respective above stated 2 mM metalloporphyrin complex, or metallocorrin complex, stock solution, and added to each glass vial (batch reactor) containing endosulfan contaminated water and titanium (III) citrate, for providing a concentration of about 0.010 mM metalloporphyrin complex, or metallocorrin complex, electron transfer mediator (homogeneous) catalyst in the endosulfan contaminated water. At this point, the glass vials were sealed, and transferred to the orbital shaker.
The contents, i.e., the endosulfan contaminated water containing the titanium (III) citrate as bulk electron donor or reducing agent and the metalloporphyrin complex, or metallocorrin complex, electron transfer mediator (homogeneous) catalyst, in each glass vial (batch reactor), were continuously mixed by securing each glass vial onto the orbital shaker set at a mixing speed of 150 rpm during the entire extent of time or duration of reaction.
For each metalloporphyrin complex, or metallocorrin complex, GC/MS analytical samples were prepared after 72 hours from each of at least two glass vials containing the endosulfan contaminated water of the batch mode homogeneous catalytic reductive dechlorination reaction.

[4] = partitioning (adsorption and desorption) of electron transfer mediators on/off geological matter; type: physicochemical; settings: Montmorillonite clay, room temperature; for Adsorption (%) of (ETM) after 10 days: aqueous mixture; for Desorption (%) of (ETM) after 10 days: fresh water replaced
Description: Montmorillonite clay, 10-12% impurities, was obtained from Fluka.
as §1, §2, §3, §4, §5, §6, §7

[5] = as above; type: physicochemical; settings: Bet Dagan soil, room temperature; for Adsorption (%) of (ETM) after 10 days: aqueous mixture; for Desorption (%) of (ETM) after 10 days: fresh water replaced
Description: Bet Dagan soil was obtained from the site of the Bet Dagan Agricultural Research Organization campus, Bet Dagan, Israel. The Bet Dagan soil was sieved to a size of 60 mesh, and maintained in a dry air environment until use.
as §1, §2, §3, §4, §5, §6
The ‘adsorption mode’ analytical samples were then analyzed by the above described (UV/VIS) absorption spectrometry procedure, for determining the quantity (concentration) of the [TBSP-Ni], hematoporphyrin-Cobalt, and vitamin B12, electron transfer mediator (ETM), present (i.e., remaining) in the aqueous (liquid) phase of each respective electron transfer mediator (ETM)—geological matter (soil or clay) aqueous mixture. […]

[6] = cited from earlier work

Compound: CCNc1nc(Cl)nc(NC(C)C)n1 [Atrazine, atrazine]
persistence in deep lakes [1]: exceed 10 years

Compound: O=S(=O)(O)c1ccc(-c2c3nc(c(-c4ccc(S(=O)(=O)O)cc4)c4ccc([nH]4)c(-c4ccc(S(=O)(=O)O)cc4)c4nc(c(-c5ccc(S(=O)(=O)O)cc5)c5ccc2[nH]5)C=C4)C=C3)cc1.[Ni] [[TBSP—Ni], 4,4′,4″,4′″-(porphine-5,10,15,20-tetrayl)tetrakis(benzenesulfonic acid)-Nickel]
Adsorption (%) of (ETM) after 10 days [2]: 59.44 ± 1.21%
Desorption (%) of (ETM) after 10 days [2]: 40.17 ± 5.51%
Normalized Endosulfan Concentration (%) α isomer [3]: 1.3%
Normalized Endosulfan Concentration (%) β isomer [3]: 0.0%
Adsorption (%) of (ETM) after 10 days [4]: 95.50 ± 0.44%
Desorption (%) of (ETM) after 10 days [4]: 8.57 ± 1.28%
Adsorption (%) of (ETM) after 10 days [5]: 71.68 ± 2.31%
Desorption (%) of (ETM) after 10 days [5]: 21.22 ± 2.55%

Compound: Oc1ccc(-c2c3nc(c(-c4ccc(O)cc4)c4ccc([n-]4)c(-c4ccc(O)cc4)c4nc(c(-c5ccc(O)cc5)c5ccc2[n-]5)C=C4)C=C3)cc1.[Ni+2] [[TP(OH)P—Ni], tetrahydroxyphenylporphyrine-Nickel [5,10,15,20-tetrakis(4-hydroxyphenyl)-21H,23H-porphine-Nickel]]
Normalized Endosulfan Concentration (%) α isomer [3]: 8.3%
Normalized Endosulfan Concentration (%) β isomer [3]: 9.3%

Compound: Oc1ccc(-c2c3nc(c(-c4ccc(O)cc4)c4ccc([n-]4)c(-c4ccc(O)cc4)c4nc(c(-c5ccc(O)cc5)c5ccc2[n-]5)C=C4)C=C3)cc1.[Co+2] [[TP(OH)P—Co], tetrahydroxyphenylporphyrine-Cobalt [5,10,15,20-tetrakis(4-hydroxyphenyl)-21H,23H-porphine-Cobalt]]
Normalized Endosulfan Concentration (%) α isomer [3]: 8.3%
Normalized Endosulfan Concentration (%) β isomer [3]: 12.3%

Compound: C[n+]1ccc(-c2c3nc(c(-c4cc[n+](C)cc4)c4ccc([n-]4)c(-c4cc[n+](C)cc4)c4nc(c(-c5cc[n+](C)cc5)c5ccc2[n-]5)C=C4)C=C3)cc1.[Fe+2] [[TMPyP—Fe], tetramethylpyridilporphyrin-Iron [5,10,15,20-tetrakis(1-methyl-4-pyridinio)-porphine-Iron]]
Normalized Endosulfan Concentration (%) α isomer [3]: 40.7%
Normalized Endosulfan Concentration (%) β isomer [3]: 66.7%

Compound: O=S(=O)(O)c1ccc(-c2c3nc(c(-c4ccc(S(=O)(=O)O)cc4)c4ccc([nH]4)c(-c4ccc(S(=O)(=O)O)cc4)c4nc(c(-c5ccc(S(=O)(=O)O)cc5)c5ccc2[nH]5)C=C4)C=C3)cc1.[Co] [[TBSP—Co], 4,4′,4″,4′″-(porphine-5,10,15,20-tetrayl)tetrakis(benzenesulfonic acid)-Cobalt]
Normalized Endosulfan Concentration (%) α isomer [3]: 2.8%
Normalized Endosulfan Concentration (%) β isomer [3]: 0.0%

Adsorption (%) of (ETM) after 10 days [2]: 45.28 ± 1.85%
Desorption (%) of (ETM) after 10 days [2]: 12.65 ± 0.67%
Adsorption (%) of (ETM) after 10 days [4]: 100%
Desorption (%) of (ETM) after 10 days [4]: 0%
Adsorption (%) of (ETM) after 10 days [5]: 12.80 ± 1.2%
Desorption (%) of (ETM) after 10 days [5]: 5.87 ± 0.32%
Compound: hematoporphyrin-Cobalt
Normalized Endosulfan Concentration (%) α isomer [3]: 9.4%
Normalized Endosulfan Concentration (%) β isomer [3]: 9.7%

Compound: C[n+]1ccc(-c2c3nc(c(-c4cc[n+](C)cc4)c4ccc([n-]4)c(-c4cc[n+](C)cc4)c4nc(c(-c5cc[n+](C)cc5)c5ccc2[n-]5)C=C4)C=C3)cc1.[Ni+2] [[TMPyP—Ni], tetramethylpyridilporphyrin-Nickel [5,10,15,20-tetrakis(1-methyl-4-pyridinio)-porphine-Nickel]]
Normalized Endosulfan Concentration (%) α isomer [3]: 0.0%
Normalized Endosulfan Concentration (%) β isomer [3]: 0.0%

Compound: C[n+]1ccc(-c2c3nc(c(-c4cc[n+](C)cc4)c4ccc([n-]4)c(-c4cc[n+](C)cc4)c4nc(c(-c5cc[n+](C)cc5)c5ccc2[n-]5)C=C4)C=C3)cc1.[Co+2] [[TMPyP—Co], tetramethylpyridilporphyrin-Cobalt [5,10,15,20-tetrakis(1-methyl-4-pyridinio)-porphine-Cobalt]]
Normalized Endosulfan Concentration (%) α isomer [3]: 1.2%
Normalized Endosulfan Concentration (%) β isomer [3]: 0.0%

Compound: Clc1ccc(C(c2ccc(Cl)cc2)C(Cl)(Cl)Cl)cc1 [DDT, DichloroDiphenylTrichloroethane]
partition coefficient, Kd, relative to aldicarb ([6]; ratio DDT / aldicarb): roughly 20,000 times
partition coefficient, Kd, relative to atrazine ([6]; ratio DDT / atrazine): ~1,500 times

Compound: C=Cc1c(C)c2cc3[nH]c(cc4nc(cc5nc(cc1[nH]2)C(C)=C5CCC(=O)[O-])C(CCC(=O)[O-])=C4C)c(C)c3C=C.[Co+2] [Protoporphyrin IX-Co, protoporphyrin IX-Cobalt]
Normalized Endosulfan Concentration (%) α isomer [3]: 31.5%
Normalized Endosulfan Concentration (%) β isomer [3]: 37.8%
